Reference: ChEMBL document CHEMBL1201862, “PubChem BioAssay data set” (2004)
Blank lines part the entries; values can stand above or below the compound they belong to. Activity calls are given as the source filed them.

What was measured:
[1] = biological target: T1, Neuropeptide Y receptor type 2 (Homo sapiens, UniProt P49146); type: functional, cell-based;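 also: HEK293 cells expressing the receptor and a CNG channel; stimulus was NPY near EC95 followed by isoproterenol to raise cAMP; antagonist potency measured as restoring cAMP signal that NPY suppresses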
T1 sequence (P49146 whole entry): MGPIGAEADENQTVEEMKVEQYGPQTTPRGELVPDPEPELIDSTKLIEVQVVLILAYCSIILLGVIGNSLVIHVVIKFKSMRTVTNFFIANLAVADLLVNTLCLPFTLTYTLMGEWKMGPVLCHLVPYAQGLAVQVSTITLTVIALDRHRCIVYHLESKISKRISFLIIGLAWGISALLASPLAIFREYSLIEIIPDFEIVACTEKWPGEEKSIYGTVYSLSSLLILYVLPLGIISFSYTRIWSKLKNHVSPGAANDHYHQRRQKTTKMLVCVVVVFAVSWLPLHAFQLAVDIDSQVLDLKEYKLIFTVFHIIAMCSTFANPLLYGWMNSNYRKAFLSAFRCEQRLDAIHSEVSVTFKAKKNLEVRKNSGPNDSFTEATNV

[2] = biological target: T2, High affinity choline transporter 1 (Homo sapiens, UniProt Q9GZV3); experiment: CHT activators, dose response, cell-based, 10-point CRC, membrane potential dye (AID 602376); type: functional
T2 sequence (Q9GZV3 whole entry): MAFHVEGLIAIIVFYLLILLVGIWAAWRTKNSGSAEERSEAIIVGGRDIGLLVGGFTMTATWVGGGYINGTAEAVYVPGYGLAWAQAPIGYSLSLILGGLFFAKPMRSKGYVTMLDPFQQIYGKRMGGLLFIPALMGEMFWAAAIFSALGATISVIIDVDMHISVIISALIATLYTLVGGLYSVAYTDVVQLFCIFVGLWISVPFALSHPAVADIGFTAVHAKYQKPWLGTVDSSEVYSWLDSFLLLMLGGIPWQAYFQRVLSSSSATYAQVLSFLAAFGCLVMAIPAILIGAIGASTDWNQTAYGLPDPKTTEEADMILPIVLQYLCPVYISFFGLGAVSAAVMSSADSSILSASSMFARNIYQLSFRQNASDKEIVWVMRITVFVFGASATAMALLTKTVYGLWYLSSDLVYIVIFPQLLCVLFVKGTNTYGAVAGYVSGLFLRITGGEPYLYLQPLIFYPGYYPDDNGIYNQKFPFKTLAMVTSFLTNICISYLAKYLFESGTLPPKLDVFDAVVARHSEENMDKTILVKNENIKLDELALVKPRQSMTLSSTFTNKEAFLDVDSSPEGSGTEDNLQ

[3] = biological target: T3, Neuropeptide Y receptor type 1 (Homo sapiens, UniProt P25929); type: functional;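 also: HEK293 cells with a CNG channel challenged with NPY then isoproterenol; potency as antagonist that reverses NPY suppression of cAMP signal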
T3 sequence (P25929 whole entry): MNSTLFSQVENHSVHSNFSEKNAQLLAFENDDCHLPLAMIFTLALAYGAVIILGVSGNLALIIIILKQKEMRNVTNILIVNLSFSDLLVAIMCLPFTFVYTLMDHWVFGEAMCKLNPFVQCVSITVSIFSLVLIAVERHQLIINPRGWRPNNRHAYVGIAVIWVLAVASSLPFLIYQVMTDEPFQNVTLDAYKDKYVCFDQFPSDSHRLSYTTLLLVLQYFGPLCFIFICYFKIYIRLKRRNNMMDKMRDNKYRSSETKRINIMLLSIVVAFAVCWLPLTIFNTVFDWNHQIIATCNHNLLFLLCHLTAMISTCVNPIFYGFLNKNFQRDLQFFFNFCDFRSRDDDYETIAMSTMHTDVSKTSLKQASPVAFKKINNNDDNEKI

[4] = biological target: Protein disulfide-isomerase (Homo sapiens, UniProt P07237); experiment: PDI inhibitors, insulin aggregation turbidity, dose response, biochemical, absorbance, cherry-picked samples (AID 602350); type: functional
Sequence of Protein disulfide-isomerase (P07237 whole entry): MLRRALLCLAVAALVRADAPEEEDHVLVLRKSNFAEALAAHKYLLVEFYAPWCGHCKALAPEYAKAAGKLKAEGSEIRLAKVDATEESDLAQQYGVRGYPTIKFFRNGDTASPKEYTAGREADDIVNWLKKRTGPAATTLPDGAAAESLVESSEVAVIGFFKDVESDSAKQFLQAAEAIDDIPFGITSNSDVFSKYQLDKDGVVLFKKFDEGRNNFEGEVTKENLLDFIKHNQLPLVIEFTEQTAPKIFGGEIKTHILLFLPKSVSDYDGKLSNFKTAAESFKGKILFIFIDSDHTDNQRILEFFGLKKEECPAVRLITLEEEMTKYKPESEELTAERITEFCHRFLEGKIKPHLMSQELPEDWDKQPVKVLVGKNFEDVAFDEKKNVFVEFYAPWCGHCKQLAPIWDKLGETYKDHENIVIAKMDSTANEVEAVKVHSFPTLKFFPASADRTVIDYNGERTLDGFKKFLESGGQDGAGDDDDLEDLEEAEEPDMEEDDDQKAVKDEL

[5] = biological target: Glycogen synthase kinase-3 beta (Homo sapiens, UniProt P49841); experiment: Inhibition of Human GSK-3 beta Activity Measured in Biochemical System Using Microfluidics - 2063-05_Inhibitor_Dose_DryPowder_Activity_Set2. [Related pubchem assays (depositor defined):AID2709]
Sequence of Glycogen synthase kinase-3 beta (P49841 whole entry): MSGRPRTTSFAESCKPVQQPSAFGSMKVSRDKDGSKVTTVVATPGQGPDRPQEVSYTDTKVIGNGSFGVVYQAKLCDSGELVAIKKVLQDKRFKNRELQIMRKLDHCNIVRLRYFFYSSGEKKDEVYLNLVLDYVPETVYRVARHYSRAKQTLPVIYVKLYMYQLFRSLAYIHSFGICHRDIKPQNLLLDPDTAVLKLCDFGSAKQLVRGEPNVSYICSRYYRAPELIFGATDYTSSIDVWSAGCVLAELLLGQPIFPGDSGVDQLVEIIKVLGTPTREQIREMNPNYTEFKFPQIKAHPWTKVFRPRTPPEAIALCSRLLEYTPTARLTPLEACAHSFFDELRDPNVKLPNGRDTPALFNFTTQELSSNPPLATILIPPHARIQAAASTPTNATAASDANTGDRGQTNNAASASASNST

Cytochrome P450 2D6 = Cytochrome P450 2D6 (Homo sapiens, UniProt P10635);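 also: CYP2D6 member of a cytochrome P450 panel assay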
Sequence of Cytochrome P450 2D6 (P10635 whole entry): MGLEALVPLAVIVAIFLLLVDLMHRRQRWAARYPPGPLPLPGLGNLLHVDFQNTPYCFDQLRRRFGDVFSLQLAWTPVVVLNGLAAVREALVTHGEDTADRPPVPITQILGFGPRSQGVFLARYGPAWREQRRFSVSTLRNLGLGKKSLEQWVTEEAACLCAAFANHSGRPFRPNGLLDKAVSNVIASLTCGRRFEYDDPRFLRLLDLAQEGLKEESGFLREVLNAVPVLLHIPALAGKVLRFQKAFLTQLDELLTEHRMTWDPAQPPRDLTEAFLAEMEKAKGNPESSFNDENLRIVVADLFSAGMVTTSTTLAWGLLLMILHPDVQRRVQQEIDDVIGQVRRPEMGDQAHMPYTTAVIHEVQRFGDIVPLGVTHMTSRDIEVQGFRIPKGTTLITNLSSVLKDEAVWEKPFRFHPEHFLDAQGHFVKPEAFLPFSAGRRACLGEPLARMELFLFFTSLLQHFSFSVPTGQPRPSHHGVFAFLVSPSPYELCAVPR

Cytochrome P450 2C9 = Cytochrome P450 2C9 (Homo sapiens, UniProt P11712)
Sequence of Cytochrome P450 2C9 (P11712 whole entry): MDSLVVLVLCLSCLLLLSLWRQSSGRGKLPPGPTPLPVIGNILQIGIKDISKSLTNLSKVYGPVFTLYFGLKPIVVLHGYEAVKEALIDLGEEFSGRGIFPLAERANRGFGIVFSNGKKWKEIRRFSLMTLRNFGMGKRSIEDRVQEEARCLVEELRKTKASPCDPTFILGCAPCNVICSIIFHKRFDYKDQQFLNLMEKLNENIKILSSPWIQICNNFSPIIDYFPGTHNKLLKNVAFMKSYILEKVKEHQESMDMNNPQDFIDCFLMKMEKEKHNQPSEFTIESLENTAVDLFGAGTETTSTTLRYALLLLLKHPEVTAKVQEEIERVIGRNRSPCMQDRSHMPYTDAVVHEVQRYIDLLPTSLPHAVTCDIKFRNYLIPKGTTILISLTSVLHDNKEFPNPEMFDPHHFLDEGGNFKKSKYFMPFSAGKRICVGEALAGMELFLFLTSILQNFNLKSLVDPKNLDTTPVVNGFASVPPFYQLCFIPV

[6] = biological target: Glycogen synthase kinase-3 alpha (Homo sapiens, UniProt P49840); experiment: Inhibition of Human GSK-3 alpha Activity Measured in Biochemical System Using Microfluidics - 2063-06_Inhibitor_Dose_DryPowder_Activity_Set2. [Related pubchem assays (depositor defined):AID2709]
Sequence of Glycogen synthase kinase-3 alpha (P49840 whole entry): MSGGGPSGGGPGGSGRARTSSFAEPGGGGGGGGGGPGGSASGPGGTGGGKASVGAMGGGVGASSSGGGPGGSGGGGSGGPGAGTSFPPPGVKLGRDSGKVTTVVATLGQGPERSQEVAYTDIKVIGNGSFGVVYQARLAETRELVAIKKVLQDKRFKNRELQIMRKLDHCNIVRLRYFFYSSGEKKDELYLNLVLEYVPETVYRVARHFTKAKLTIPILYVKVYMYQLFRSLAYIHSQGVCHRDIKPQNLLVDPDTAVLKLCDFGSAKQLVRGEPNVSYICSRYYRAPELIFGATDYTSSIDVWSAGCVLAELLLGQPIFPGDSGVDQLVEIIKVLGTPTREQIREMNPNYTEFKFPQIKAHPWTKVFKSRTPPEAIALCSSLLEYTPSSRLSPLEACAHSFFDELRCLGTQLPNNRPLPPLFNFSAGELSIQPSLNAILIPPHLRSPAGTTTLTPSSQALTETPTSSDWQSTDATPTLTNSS

Caspase-3 = biological target: T4, Caspase-3 (Homo sapiens, UniProt P42574); experiment: caspase-3 inhibitors as off-family protease, SAR follow-up, selectivity assay for SENP protease inhibitor project, biochemical, luminescence, set 2 (AID 588599); type: functional
T4 sequence (P42574 whole entry): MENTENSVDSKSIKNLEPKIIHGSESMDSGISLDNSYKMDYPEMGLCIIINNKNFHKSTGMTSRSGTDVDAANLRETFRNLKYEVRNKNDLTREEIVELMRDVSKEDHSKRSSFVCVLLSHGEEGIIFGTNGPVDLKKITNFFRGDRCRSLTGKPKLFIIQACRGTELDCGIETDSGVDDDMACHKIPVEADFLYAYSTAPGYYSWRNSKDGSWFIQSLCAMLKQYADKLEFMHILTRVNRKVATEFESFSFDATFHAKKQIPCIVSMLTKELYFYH

[7] = biological target: T5, Sentrin-specific protease 8 (Homo sapiens, UniProt Q96LD8); experiment: SENP8 protease inhibitors, SAR follow-up, biochemical, luminescence, set 2 (AID 588601); type: functional
T5 sequence (Q96LD8 whole entry): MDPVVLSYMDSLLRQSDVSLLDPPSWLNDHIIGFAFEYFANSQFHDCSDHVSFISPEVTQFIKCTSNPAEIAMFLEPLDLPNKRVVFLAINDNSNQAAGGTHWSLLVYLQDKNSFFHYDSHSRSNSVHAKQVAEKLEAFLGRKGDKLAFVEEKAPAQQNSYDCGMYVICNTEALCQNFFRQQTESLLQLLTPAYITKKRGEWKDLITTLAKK

[8] = biological target: T6, Sentrin-specific protease 6 (Homo sapiens, UniProt Q9GZR1); experiment: SENP6 protease inhibitors, SAR follow-up, biochemical, luminescence, set 2 (AID 588598); type: functional
T6 sequence (Q9GZR1 whole entry): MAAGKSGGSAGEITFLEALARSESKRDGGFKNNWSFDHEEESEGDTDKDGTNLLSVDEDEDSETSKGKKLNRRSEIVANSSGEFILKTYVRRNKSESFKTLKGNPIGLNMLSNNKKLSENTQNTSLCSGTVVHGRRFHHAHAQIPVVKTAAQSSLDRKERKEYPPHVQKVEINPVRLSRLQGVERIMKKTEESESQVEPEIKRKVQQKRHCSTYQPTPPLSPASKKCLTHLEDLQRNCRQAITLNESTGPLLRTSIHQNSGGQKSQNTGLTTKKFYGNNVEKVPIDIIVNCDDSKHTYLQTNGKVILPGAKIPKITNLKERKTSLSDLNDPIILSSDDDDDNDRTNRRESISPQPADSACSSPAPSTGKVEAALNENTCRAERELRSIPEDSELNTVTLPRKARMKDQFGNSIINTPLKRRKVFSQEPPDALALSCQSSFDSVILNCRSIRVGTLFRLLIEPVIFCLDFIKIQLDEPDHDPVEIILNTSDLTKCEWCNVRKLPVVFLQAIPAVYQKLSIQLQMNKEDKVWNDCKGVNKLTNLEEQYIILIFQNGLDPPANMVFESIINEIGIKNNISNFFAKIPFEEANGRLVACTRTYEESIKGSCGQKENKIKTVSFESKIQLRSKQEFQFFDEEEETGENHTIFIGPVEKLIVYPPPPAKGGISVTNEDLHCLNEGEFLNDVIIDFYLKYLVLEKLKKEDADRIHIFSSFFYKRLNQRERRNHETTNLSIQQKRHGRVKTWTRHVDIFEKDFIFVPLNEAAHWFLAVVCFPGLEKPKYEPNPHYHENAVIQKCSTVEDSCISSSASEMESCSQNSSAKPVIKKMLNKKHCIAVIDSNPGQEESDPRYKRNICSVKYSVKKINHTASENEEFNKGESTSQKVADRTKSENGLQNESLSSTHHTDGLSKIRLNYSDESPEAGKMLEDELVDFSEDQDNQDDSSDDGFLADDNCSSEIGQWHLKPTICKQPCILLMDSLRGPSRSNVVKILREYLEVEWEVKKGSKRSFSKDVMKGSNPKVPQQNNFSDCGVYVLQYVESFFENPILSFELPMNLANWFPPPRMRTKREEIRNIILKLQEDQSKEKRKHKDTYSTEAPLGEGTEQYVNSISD

[9] = biological target: T7, Sentrin-specific protease 7 (Homo sapiens, UniProt Q9BQF6); experiment: SENP7 protease inhibitors, SAR follow-up, biochemical, luminescence, set 2 (AID 588600); type: functional
T7 sequence (Q9BQF6 whole entry): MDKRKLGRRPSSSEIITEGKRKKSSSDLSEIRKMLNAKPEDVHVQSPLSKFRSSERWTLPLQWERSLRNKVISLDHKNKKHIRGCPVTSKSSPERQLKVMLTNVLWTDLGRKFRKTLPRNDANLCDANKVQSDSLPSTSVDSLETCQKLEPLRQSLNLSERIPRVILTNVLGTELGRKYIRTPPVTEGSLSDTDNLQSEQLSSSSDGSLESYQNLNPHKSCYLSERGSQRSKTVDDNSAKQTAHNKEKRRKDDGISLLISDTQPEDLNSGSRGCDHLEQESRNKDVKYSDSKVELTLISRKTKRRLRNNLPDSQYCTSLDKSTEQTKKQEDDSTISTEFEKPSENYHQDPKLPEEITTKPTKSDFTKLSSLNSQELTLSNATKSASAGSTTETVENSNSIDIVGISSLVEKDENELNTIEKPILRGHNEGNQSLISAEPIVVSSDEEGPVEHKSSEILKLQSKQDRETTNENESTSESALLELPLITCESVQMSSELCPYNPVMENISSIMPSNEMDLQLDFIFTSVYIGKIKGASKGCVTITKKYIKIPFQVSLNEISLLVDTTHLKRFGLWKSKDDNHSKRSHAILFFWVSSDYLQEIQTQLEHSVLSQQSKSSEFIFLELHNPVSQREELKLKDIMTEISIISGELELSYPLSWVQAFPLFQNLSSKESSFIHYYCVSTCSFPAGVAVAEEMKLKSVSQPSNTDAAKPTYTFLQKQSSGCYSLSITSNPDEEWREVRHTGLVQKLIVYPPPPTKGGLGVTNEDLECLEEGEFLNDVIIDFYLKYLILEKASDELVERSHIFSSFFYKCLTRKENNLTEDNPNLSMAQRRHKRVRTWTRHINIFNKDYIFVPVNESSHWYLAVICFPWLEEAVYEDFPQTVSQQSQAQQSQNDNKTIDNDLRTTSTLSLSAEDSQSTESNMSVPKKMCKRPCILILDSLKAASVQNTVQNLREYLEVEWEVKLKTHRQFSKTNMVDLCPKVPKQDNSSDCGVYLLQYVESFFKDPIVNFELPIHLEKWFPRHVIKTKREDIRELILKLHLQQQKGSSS

Aurora kinase B = Aurora kinase B (Homo sapiens, UniProt Q96GD4); type: functional
Sequence of Aurora kinase B (Q96GD4 whole entry): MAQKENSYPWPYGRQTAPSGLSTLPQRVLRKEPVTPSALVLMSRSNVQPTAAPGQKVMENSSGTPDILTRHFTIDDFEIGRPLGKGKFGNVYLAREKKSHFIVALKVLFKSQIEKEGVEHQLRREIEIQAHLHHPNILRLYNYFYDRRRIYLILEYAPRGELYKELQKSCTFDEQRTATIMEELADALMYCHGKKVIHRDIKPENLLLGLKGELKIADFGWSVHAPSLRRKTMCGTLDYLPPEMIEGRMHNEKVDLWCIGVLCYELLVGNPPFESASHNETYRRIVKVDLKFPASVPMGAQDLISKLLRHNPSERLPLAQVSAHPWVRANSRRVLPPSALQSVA

[10] = biological target: Vascular endothelial growth factor receptor 2 (Homo sapiens, UniProt P35968); type: functional
Sequence of Vascular endothelial growth factor receptor 2 (P35968 whole entry): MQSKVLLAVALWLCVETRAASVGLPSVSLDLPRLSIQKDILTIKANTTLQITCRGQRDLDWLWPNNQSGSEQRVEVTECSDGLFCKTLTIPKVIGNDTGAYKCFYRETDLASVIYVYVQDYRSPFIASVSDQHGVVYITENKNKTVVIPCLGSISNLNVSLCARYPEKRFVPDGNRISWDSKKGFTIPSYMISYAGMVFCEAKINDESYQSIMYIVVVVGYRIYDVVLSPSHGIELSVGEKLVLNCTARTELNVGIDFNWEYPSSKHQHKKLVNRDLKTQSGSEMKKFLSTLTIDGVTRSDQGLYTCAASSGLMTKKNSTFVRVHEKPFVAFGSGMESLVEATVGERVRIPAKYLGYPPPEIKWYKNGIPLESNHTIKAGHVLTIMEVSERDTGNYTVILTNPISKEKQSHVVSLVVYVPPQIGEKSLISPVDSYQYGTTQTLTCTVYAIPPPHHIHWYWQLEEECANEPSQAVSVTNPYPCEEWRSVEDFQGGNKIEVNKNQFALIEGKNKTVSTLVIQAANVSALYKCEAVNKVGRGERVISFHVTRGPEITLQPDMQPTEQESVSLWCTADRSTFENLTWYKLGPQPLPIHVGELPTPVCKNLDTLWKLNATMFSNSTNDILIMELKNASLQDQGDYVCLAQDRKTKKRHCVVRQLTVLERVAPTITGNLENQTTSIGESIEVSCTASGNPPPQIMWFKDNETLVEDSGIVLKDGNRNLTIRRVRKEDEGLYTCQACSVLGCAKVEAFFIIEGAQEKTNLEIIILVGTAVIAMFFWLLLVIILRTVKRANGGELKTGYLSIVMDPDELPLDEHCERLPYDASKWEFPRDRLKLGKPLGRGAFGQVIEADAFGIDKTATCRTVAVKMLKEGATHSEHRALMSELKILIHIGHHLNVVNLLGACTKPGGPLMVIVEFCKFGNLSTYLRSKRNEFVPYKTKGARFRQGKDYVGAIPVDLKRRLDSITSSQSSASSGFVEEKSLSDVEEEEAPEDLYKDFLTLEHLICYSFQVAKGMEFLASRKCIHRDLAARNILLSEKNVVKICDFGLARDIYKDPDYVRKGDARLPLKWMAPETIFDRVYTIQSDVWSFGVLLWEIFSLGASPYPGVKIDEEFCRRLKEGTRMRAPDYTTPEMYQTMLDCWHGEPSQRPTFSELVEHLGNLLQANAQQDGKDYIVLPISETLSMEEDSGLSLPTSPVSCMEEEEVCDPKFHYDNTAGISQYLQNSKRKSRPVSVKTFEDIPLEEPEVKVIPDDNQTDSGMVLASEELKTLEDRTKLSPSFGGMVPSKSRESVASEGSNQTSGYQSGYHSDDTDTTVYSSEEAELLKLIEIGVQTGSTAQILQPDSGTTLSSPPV

SMILES: CCC1=Nc2ccc(Br)cc2C(c2ccccc2)N1CC(=O)OC (centres undefined)
IC50 [1]: > 35 µM (not active)
EC50 [2]: 14.3 µM (active)
IC50 [3]: 13.2 µM (not active)

SMILES: C[C@@H]1O[C@@H](O[C@@H]2C(=O)c3c(O)cc(O)cc3O[C@H]2c2ccc(O)c(O)c2)[C@H](O)[C@H](O)[C@H]1O
AC50 [4]: 10.2 µM (active)

SMILES: Cc1ccc(-c2cc(CNC(=O)C(=O)c3c[nH]c4ccccc34)no2)cc1
IC50 (Caspase-3): > 99 µM (inactive)
IC50 [7]: > 99 µM (inactive)
IC50 [8]: > 99 µM (inactive)
IC50 [9]: > 99 µM (inactive)

Now from value to compound:

AC50 [5]: 0.7 µM (active)
AC50 (Cytochrome P450 2D6): 5.01 µM (inconclusive)
AC50 (Cytochrome P450 2C9): inconclusive
AC50 [6]: 1.33 µM (active)
SMILES: Cn1c(SCc2nnc(-c3ccc(F)cc3)o2)nnc1C1COc2ccccc2O1 (centres undefined)

Ki (Aurora kinase B): 1.26 µM (active)
Ki [10]: 1.26 µM (active)
SMILES: COc1ccc(-c2cc(-c3ccccc3)nc3ncnc(NC(=O)COCC(=O)O)c23)cc1
